From patent US20100215618A1, “NOVEL COMPOUNDS - 644” (Arrow Therapeutics Limited, priority 2009, published 2010)
Where two headings read alike, the source gives them in different places.

Key:
[1] = test system: HCV genotype 1a replicon cells Htat2ANeo; assay: 1a Replicon Assay (cell-based anti-NS5a ELISA); conditions: Hepatitis C virus, 72 h
Protocol: HCV genotype la replicon cells Htat2ANeo (University of Texas), containing neomycin phosphotransferase fusion protein and EMCV-IRES driven HCV polyprotein with cell culture adaptive mutations, and control cells, Et2AN.
Cells were cultured at 37° C./5% CO2 and split twice a week. G418 at 0.5 mg/ml and Blastocidin at 2 mg/ml were added to the culture medium but not the assay medium.
The culture medium consisted of DMEM with […] glucose and Glutamax (Gibco 61965-026) supplemented with 1× non-essential amino acids (Invitrogen 11140-035), 0.5 mg/ml G418 (Invitrogen 10131-027), 2 mg/ml Blastocidin (PAA) and 10% is Australian foetal calf serum (Invitrogen 10099-141).
Replicon and control cells were trypsinised and counted. Replicon cells were diluted to 90,000 cells/ml and 100 μl of this used to seed columns 2-4, […] and 10-12 of a black, clear bottom 96-well plate for every three compounds to be tested for IC50. Control cells were diluted to 60,000 cells/ml and 100 μl of this used to seed columns 1, 5 and 9 of the plate. Well H1 was left empty as the blank. Plates were then incubated at 37° C./5% CO2 for 24 h.
On the following day compound dilutions were prepared in medium at twice their desired final concentration in a clear round bottomed plate.
Controls and compounds were transferred from the dilution plate to the assay plates (containing the cells) at 100 μl/well in quadruplicate wells, one well containing control cells and 3 wells containing replicon cells.
Exception: no compound was added to row H of the plate and 100 μl of 1% DMSO was added to these instead. Plates were then incubated at 37° C. with 5% CO2 for 72 h. At the end of the incubation time, any reduction in cell viability was assayed and a cell-based enzyme linked immunosorbent assay (ELISA) was performed. The media/compound was removed from all wells and replaced with 100 μl/well serum-free media and 20 μl/well Cell Titre Blue (Promega G8081). Following incubation at 37° C./5% CO2 for 2 h plates were read on a microplate fluorometer (Molecular Devices) using an excitation of 570 nm and an emission of 590 nm The TD50, the concentration of drug required to reduce 50% of Cell Titre Blue relative to the DMSO controls, was calculated by plotting the fluorescence at 590 nm after substraction of background against drug concentration.
The media/Cell Titre Blue was removed and plates washed in PBS and gently tapped dry before addition of 50 μL per well of 75% acetone/25% methanol mixture for 3 minutes. The fixative was then discarded and wells were washed with PBS before addition of 100 μl/well of blocking solution (2% non-fat dry milk and 0.05% Tween-20 in 0.85% NaCl). Plates were then incubated at 37° C. in a shaking incubator for 60 min. Blocking solution was discarded and 50 μl of mouse anti-NS5a antibody (Virostat 1877) at 1:100 dilution in blocking buffer was added to all wells. Plates were incubated at 37° C. in a shaking incubator for 90 min Antibody was then discarded and plates were washed 4 times by immersion in 0.85% NaCl/0.05% Tween-20. After washing plates were tapped dry gently and 50 μl of secondary antibody (Dako P0260 Rabbit anti-mouse horseradish peroxidase) at 1:1000 dilution in blocking buffer was added to the wells. Plates were incubated at 37° C. in a shaking incubator for 60 min. Antibody was discarded and plates were washed 6 times by immersion in 0.85% NaCl/0.05% Tween-20 and once in PBS. Finally, 50 μl of substrate (SigmaFast ortho-phenylene diamine dihydrochloride (OPD)) was added per well and the colorimetric reaction was allowed to proceed in the dark for 5 to 15 minutes depending on the strength or the signal. The reaction was stopped by addition of 25 μl/well of 20% sulphuric acid. Plates were read on the SpectraMax microplate reader at 490 nm fixed wavelength. […]

[2] = test system: HCV replicon cells Huh 9B; assay type: cell-based; conditions: Huh 9B replicon cells, 72 h, methylene blue, total cell area reduced by 50%
Protocol: (§1) HCV replicon cells Huh 9B (ReBlikon), containing the firefly luciferase-ubiquitin-neomycin phosphotransferase fusion protein and EMCV-IRES driven HCV polyprotein with cell culture adaptive mutations.
(§2) Replicon cells were trypsinised and counted. Cells were diluted to 100,000 cells/ml and 100 μl used to seed one opaque white 96-well plate (for the replicon assay) and one flat-bottomed clear plate (for the tox assay) for every five compounds to be tested for IC50. Wells G12 and H12 were left empty in the clear plate as the blank. Plates were then incubated at 37° C./5% CO2 for 24 h.
(§3) On the following day compound dilutions were prepared in medium at twice their desired final concentration in a clear round bottomed plate. All dilutions have a final DMSO concentration of 1%.
(§4) Controls and compounds were transferred from the dilution plates to the assay plates (containing the cells) at 100 μl/well in duplicate wells.
(§5) Exception: no compound was added to wells A1 and A2 of either plate and 100 μl of 1% DMSO was added to these instead. Plates were then incubated at 37° C./5% CO2 for 72 h.
The clear plate was stained with 100 μA 0.5% methylene blue in 50% ethanol at room temperature for 1 h, followed by solvation of the absorbed methylene blue in 100 μl per well of 1% lauroylsarcosine. Absorbance of the plate was measured on a microplate spectrophotometer (Molecular Devices) and the absorbance for each concentration of compound expressed as a proportion of the relative DMSO control. The TD50, the is concentration of drug required to reduce the total cell area by 50% relative to the DMSO controls, was calculated by plotting the absorbance at 620 nm after background substraction against drug concentration.

[3] = test system: HCV replicon cells Huh 9B (genotype 1b); assay: 1b Replicon Assay (luciferase readout); assay type: cell-based; conditions: Hepatitis C virus, Huh 9B replicon cells, 72 h, luciferase activity
Protocol: as §1
Cells were cultured at 37° C./5% CO2 and split twice a week. G418 at 0.5 mg/ml was added to the culture medium but not the assay medium.
The culture medium consisted of DMEM with […] glucose and Glutamax (Gibco 61965-026) supplemented with 1× non-essential amino acids (Invitrogen 11140-035), 0.5 mg/ml G418 (Invitrogen 10131-027) and 10% Australian foetal calf serum (Invitrogen 10099-141).
as §2, §3, §4, §5
At the end of the incubation time, the cells in the white plate were washed in PBS (100 μL per well) and dried by tapping before addition of 204 per well of lysis buffer (25 mM tris-phosphate, 8 mM MgCl2, 1 mM DTT, 1% Triton X-100, 15% glycerol; pH to 7.8 using KH2PO4 prior to Triton X-100 and glycerol addition). Aliquots of substrate (23.5 mM beetle luciferin (Promega E1603), 26 mM ATP (Sigma O-2060) in […] Tris buffer pH 7.8) were stored at −80° C. Prior to use, required amount of luciferin was thawed and diluted 1:50 in luciferase assay buffer (20 mM Tricine (Sigma T-0377), 1.07 mM magnesium carbonate hydroxide (Sigma M-5671), 0.1 mM EDTA (Sigma E-5134), 2.67 mM MgSO4(BDH 101514Y), 33.3 mM dithiothreitol (Sigma 150460) pH 7.8).
After 5-60 min incubation in lysis buffer at room temperature, a plate was inserted into the luminometer and 100 μl luciferase assay reagent was added by the injector of the luminometer. The signal was measured using a 1 second delay followed by a 4 second measurement programme. The IC50, the concentration of the drug required for reducing the replicon level by 50% in relation to the untreated cell control value, was calculated from the plot of the percentage reduction of the luciferase activity vs. drug concentration.

[4] = read-out: pIC50 1a Replicon (converted)
[5] = read-out: pIC50 1b Replicon (converted)

SMILES | IC50 ([1]; read-out: HCV IC50 Elisa 1a) [nM] | IC50 [1, 4] [nM] | HCV TD50 Replicon [2] [µM] | IC50 ([3]; read-out: HCV IC50 1b Replicon) [nM] | IC50 [3, 5] [nM]
CC(C)(C)OC(=O)N[C@H](C(=O)N1CCC[C@H]1c1ncc(-c2ccc(-c3ccc(C(=O)Nc4ccc(CN5CCS(=O)(=O)CC5)cc4)cc3)cc2)[nH]1)c1ccccc1 [Example 1, Tert-butyl N-[(1S)-2-[(2S)-2-[5-[4-[4-[[4-[(1,1-dioxo-1,4-thiazinan-4-yl)methyl]phenyl]carbamoyl]phenyl]phenyl]-1H-imidazol-2-yl]pyrrolidin-1-yl]-2-oxo-1-phenyl-ethyl]carbamate] | 41.4 | 41.7 | >25 | 0.01 | 0.0138
COC(=O)N[C@@H](C)C(=O)N1CCC[C@H]1c1ncc(-c2ccc(-c3ccc(C(=O)Nc4ccc(CN5CCS(=O)(=O)CC5)cc4)cc3)cc2)[nH]1 [Example 4, Methyl N-[(1S)-2-[(2S)-2-[5-[4-[4-[[4-[(1,1-dioxo-1,4-thiazinan-4-yl)methyl]phenyl]carbamoyl]phenyl]phenyl]-1H-imidazol-2-yl]pyrrolidin-1-yl]-1-methyl-2-oxoethyl]carbamate] | 25.9 | 25.7 | 22.44 | 1.18 | 1.17
COC(=O)N[C@@H](CO)C(=O)N1CCC[C@H]1c1ncc(-c2ccc(-c3ccc(C(=O)Nc4ccc(CN5CCS(=O)(=O)CC5)cc4)cc3)cc2)[nH]1 [Example 11, Methyl N-[(1S)-2-[(2S)-2-[5-[4-[4-[[4-[(1,1-dioxo-1,4-thiazinan-4-yl)methyl]phenyl]carbamoyl]phenyl]phenyl]-1H-imidazol-2-yl]pyrrolidin-1-yl]-1-(hydroxymethyl)-2-oxo-ethyl]carbamate] | 19 | 19.1 | >21 | 1.13 | 1.12
COC(=O)N[C@@H](C(=O)N1CCC[C@H]1c1ncc(-c2ccc(-c3ccc(C(=O)Nc4ccc(CN5CCS(=O)(=O)CC5)cc4)cc3)cc2)[nH]1)[C@H](C)O [Example 18, Methyl N-[(1R,2S)-1-[(2S)-2-[5-[4-[4-[[4-[(1,1-dioxo-1,4-thiazinan-4-yl)methyl]phenyl]carbamoyl]phenyl]phenyl]-1H-imidazol-2-yl]pyrrolidine-1-carbonyl]-2-hydroxy-propyl]carbamate] | – | – | >25 | 126 | 126
COC(=O)N[C@H](CO)C(=O)N1CCC[C@H]1c1ncc(-c2ccc(-c3ccc(C(=O)Nc4ccc(CN5CCS(=O)(=O)CC5)cc4)cc3)cc2)[nH]1 [Example 19, Methyl N-[(1R)-2-[(2S)-2-[5-[4-[4-[[4-[(1,1-dioxo-1,4-thiazinan-4-yl)methyl]phenyl]carbamoyl]phenyl]phenyl]-1H-imidazol-2-yl]pyrrolidin-1-yl]-1-(hydroxymethyl)-2-oxo-ethyl]carbamate] | – | – | 21.4 | 43.2 | 43.7
COC(=O)N[C@@H](C(=O)N1CCC[C@@H]1c1ncc(-c2ccc(-c3ccc(C(=O)Nc4ccc(CN5CCS(=O)(=O)CC5)cc4)cc3)cc2)[nH]1)C(C)C [Example 27, methyl N-[(1R)-1-[(2R)-2-[5-[4-[4-[[4-[(1,1-dioxo-1,4-thiazinan-4-yl)methyl]phenyl]carbamoyl]phenyl]phenyl]-1H-imidazol-2-yl]pyrrolidine-1-carbonyl]-2-methyl-propyl]carbamate] | – | – | >25 | 15.3 | 15.1
CN(C)[C@@H](C(=O)N1CCCC[C@H]1c1ncc(-c2ccc(-c3ccc(C(=O)Nc4ccc(CN5CCS(=O)(=O)CC5)cc4)cc3)cc2)[nH]1)c1ccccc1 [Example 53, 4-[4-[2-[(2S)-1-[(2R)-2-(dimethylamino)-2-phenyl-acetyl]-2-piperidyl]-1H-imidazol-5-yl]phenyl]-N-[4-[(1,1-dioxo-1,4-thiazinan-4-yl)methyl]phenyl]benzamide] | 324 | 324 | – | 0.82 | 0.813
